# Like-named read-outs stand apart in the source and are kept apart here.
# Assays:
# [1] = tested on: HSV-1 (VR-3); assay: Plaque inhibition (growth inhibition) in vero cell monolayer, HSV-1; type: cell-based, herpes simplex virus 1 (HSV-1); conditions: for IC50: Human alphaherpesvirus 1, Vero, compound alone, read-out: Concentraten at 50% plaque inhibition (IC50), single compound
# Description: (§1) A monolayer culture of Cercopithecus sabaeus renal cells (vero cells) was prepared in Eagle's minimum medium containing 10% of newborn calf serum (MEM-CS10) by using a 24-well microplate. Then the medium was inoculated with 50 PFU/0.1 ml/well of herpes simplex virus 1 (HSV-1) or 2 (HSV-2). After effecting adsorption at 37°C for 1 hour, the cells in each well were washed with a phosphate buffer solution (PBS). Next, 0.5% methylcellulose-containing MEM-CS2 containing stepwise diluted OXT-G, ACV or C-OXT-G alone, a combination of OXT-G and ACV, a combination of OXT-G and C-OXT-G or a combination of ACV and C-OXT-G was laminated thereon and incubated at 37°C for 2 days. After discarding the laminated medium and fixing the cells with […], the cells were stained with a Crystal Purple solution and plaques formed in each well were counted. Then the ratio (%) of the plaque count at each concentration to that of the control lot, to which no chemical was added, was determined to thereby give the 50% plaque inhibition concentration (IC₅₀). Thus the inhibitory rate (%) against the concentration of each compound was calculated.
# [2] = tested on: HSV-2 (VW-268); assay: Plaque inhibition (growth inhibition) in vero cell monolayer, HSV-2; type: cell-based, herpes simplex virus 2 (HSV-2); conditions: for IC50: Human alphaherpesvirus 2, Vero, compound alone, read-out: Concentraten at 50% plaque inhibition (IC50), single compound
# Description: as §1
structure (smiles),measurement,setting,value
"Nc1nc2c(ncn2COCCO)c(=O)[nH]1 [ACV, 9-(2-hydroxyethoxymethyl)guanine, reference compound]","ACV inhibitory rate (single compound at the same concn., theoretical)",[1]; ACV alone 0.04 μg/mℓ,(2%)
same,"ACV inhibitory rate (single compound at the same concn., theoretical)",[1]; ACV alone 0.08 μg/mℓ,(3%)
same,"ACV inhibitin rate (single compound at the same concn., theoretical)",[1]; ACV alone 0.1 μg/mℓ,(6%)
same,"ACV inhibitory rate (single compound at the same concn., theoretical)",[1]; ACV alone 0.32 μg/mℓ,(12%)
same,"ACV inhibitory rate (single compound at the same concn., theoretical)",[1]; ACV alone 0.42 μg/mℓ,(15%)
same,"ACV inhibitin rate (single compound at the same concn., theoretical)",[1]; ACV alone 0.58 μg/mℓ,(37%)
same,ACV inhibitin rate,[1]; ACV alone 0.78 μg/mℓ,50%
same,ACV inhibitory rate,[1]; ACV alone 1.4 μg/mℓ,50%
same,IC50,[1]; C-OXT-G/ACV series,0.78 µg/mL
same,IC50,[1]; OXT-G/ACV series,1.4 µg/mL
same,"ACV inhibitory rate (single compound at the same concn., theoretical)",[2]; ACV alone 0.1 μg/mℓ,(2%)
same,"ACV inhibitory rate (single compound at the same concn., theoretical)",[2]; ACV alone 0.4 μg/mℓ,(8%)
same,"ACV inhibitory rate (single compound at the same concn., theoretical)",[2]; ACV alone 1.3 μg/mℓ,(19%)
same,"ACV inhibitory rate (single compound at the same concn., theoretical)",[2]; ACV alone 1.5 μg/mℓ,(30%)
same,"ACV inhibitory rate (single compound at the same concn., theoretical)",[2]; ACV alone 1.8 μg/mℓ,(36%)
same,"ACV inhibitory rate (single compound at the same concn., theoretical)",[2]; ACV alone 1.9 μg/mℓ,(28%)
same,ACV inhibitory rate,[2]; ACV alone 2.5 μg/mℓ,50%
same,"ACV inhibitory rate (single compound at the same concn., theoretical)",[2]; ACV alone 2.7 μg/mℓ,(40%)
same,ACV inhibitory rate,[2]; ACV alone 3.4 μg/mℓ,50%
same,IC50,[2]; C-OXT-G/ACV series,2.5 µg/mL
same,IC50,[2]; OXT-G/ACV series,3.4 µg/mL
"Nc1nc2c(ncn2[C@@H]2C[C@H](CO)[C@H]2CO)c(=O)[nH]1 [C-OXT-G, (+)-9-[(1R,2R,3S)-2,3-bis(hydroxymethyl)cyclobutyl]guanine]","C-OXT-G inhibitory rate (single compound at the same concn., theoretical)",[1]; C-OXT-G alone 0.01 μg/mℓ,(2%)
same,"C-OXT-G inhibitory rate (single compound at the same concn., theoretical)",[1]; C-OXT-G alone 0.04 μg/mℓ,(3%)
same,"C-OXT-G inhibitory rate (single compound at the same concn., theoretical)",[1]; C-OXT-G alone 0.1 μg/mℓ,(8%)
same,"C-OXT-G inhibitory rate (single compound at the same concn., theoretical)",[1]; C-OXT-G alone 0.2 μg/mℓ,(33%)
same,C-OXT-G inhibitory rate,[1]; C-OXT-G alone 0.3 μg/mℓ,50%
same,"C-OXT-G inhibitory rate (single compound at the same concn., theoretical)",[1]; C-OXT-G alone 0.4 μg/mℓ,(33.3%)
same,C-OXT-G inhibitory rate,[1]; C-OXT-G alone 0.60 μg/mℓ,50%
same,IC50,[1]; C-OXT-G/ACV series,0.3 µg/mL
same,IC50,[1]; OXT-G/C-OXT-G series,0.6 µg/mL
same,"C-OXT-G inhibitory rate (single compound at the same concn., theoretical)",[2]; C-OXT-G alone 0.04 μg/mℓ,(3%)
same,"C-OXT-G inhibitory rate (single compound at the same concn., theoretical)",[2]; C-OXT-G alone 0.1 μg/mℓ,(7%)
same,"C-OXT-G inhibitory rate (single compound at the same concn., theoretical)",[2]; C-OXT-G alone 0.3 μg/mℓ,(20%)
same,"C-OXT-G inhibitory rate (single compound at the same concn., theoretical)",[2]; C-OXT-G alone 0.54 μg/mℓ,(36%)
same,C-OXT-G inhibitory rate,[2]; C-OXT-G alone 0.74 μg/mℓ,50%
same,IC50,[2]; C-OXT-G/ACV series,0.74 µg/mL
"Nc1nc2c(ncn2[C@@H]2O[C@H](CO)[C@H]2CO)c(=O)[nH]1 [OXT-G, 9-(2-deoxy-2-hydroxymethyl-β-D-erythrooxetanosyl)guanine]",IC50,[1]; OXT-G/ACV series,7 µg/mL
same,IC50,[1]; OXT-G/C-OXT-G series,7.3 µg/mL
same,"OXT-G inhibitory rate (single compound at the same concn., theoretical)",[1]; OXT-G alone 0.1 μg/mℓ,(1%)
same,"OXT-G inhibitory rate (single compound at the same concn., theoretical)",[1]; OXT-G alone 0.4 μg/mℓ,(3%)
same,"OXT-G inhibitory rate (single compound at the same concn., theoretical)",[1]; OXT-G alone 1.0 μg/mℓ,(7%)
same,"OXT-G inhibitory rate (single compound at the same concn., theoretical)",[1]; OXT-G alone 1.7 μg/mℓ,(12%)
same,"OXT-G inhibitory rate (single compound at the same concn., theoretical)",[1]; OXT-G alone 3.0 μg/mℓ,(26%)
same,"OXT-G inhibitory rate (single compound at the same concn., theoretical)",[1]; OXT-G alone 4.0 μg/mℓ,(29%)
same,"OXT-G inhibitory rate (single compound at the same concn., theoretical)",[1]; OXT-G alone 5.4 μg/mℓ,(39%)
same,OXT-G inhibitory rate,[1]; OXT-G alone 7.0 μg/mℓ,50%
same,OXT-G inhibitory rate,[1]; OXT-G alone 7.3 μg/mℓ,50%
same,IC50,[2]; OXT-G/ACV series,10 µg/mL
same,"OXT-G inhibitory rate (single compound at the same concn., theoretical)",[2]; OXT-G alone 0.4 μg/mℓ,(2%)
same,"OXT-G inhibitory rate (single compound at the same concn., theoretical)",[2]; OXT-G alone 1.0 μg/mℓ,(5%)
same,"OXT-G inhibitory rate (single compound at the same concn., theoretical)",[2]; OXT-G alone 4.0 μg/mℓ,(20%)
same,OXT-G inhibitory rate,[2]; OXT-G alone 10.0 μg/mℓ,(50%)

# — patent publication EP0477871A2, “Antiviral composition, containing guanine derivatives” (NIPPON KAYAKU KABUSHIKI KAISHA, priority 1990, dated 1992)
